# Measured values: ChEMBL document CHEMBL1150907, “Epolones: novel sesquiterpene-tropolones from fungus OS-F69284 that induce erythropoietin in human cells” (1998)
# Columns and labels:
# [1] = Cytotoxicity against human Hep3B cells after 48 hrs by MTT assay; type: functional, Hep 3B2
# [2] = system: Hep 3B2; test: Induction of erythropoietin secretion in human Hep3B cells expressing human EPO at 10 uM by ELISA; type: functional
# [3] = system: Hep 3B2; test: Induction of human erythropoietin gene expression in human Hep3B cells over expressing human EPO assessed as concentration required to produce 5-fold induction ratio by luciferase reporter gene assay relative to control; type: functional
# [4] = system: Hep 3B2; test: Induction of human erythropoietin gene expression in human Hep3B cells over expressing human EPO assessed as maximum induction ratio at 4.3 uM by luciferase reporter gene assay relative to control; type: functional
# [5] = system: Hep 3B2; test: Induction of human erythropoietin gene expression in human Hep3B cells over expressing human EPO assessed as maximum induction ratio at 6.5 uM by luciferase reporter gene assay relative to control; type: functional
Compound,IC90 [1],Activity [2],Activity [3],Ratio [4],Ratio [5]
Cc1cc(=O)c(O)cc2c1C[C@H]1CC(C)(C)/C=C/C[C@@]3(C)Oc4cc(O)cc(C)c4C[C@@H]3C[C@H](O)[C@]1(C)O2 [EPOLONE A],> 40 µM,45 mU/ml,1 µM,26,
C/C1=C\CC(C)(C)/C=C/C[C@@]2(C)Oc3cc(O)c(=O)cc(C)c3C[C@@H]2C[C@H]1O [EPOLONE B],> 40 µM,40 mU/ml,1.5 µM,,22
Cc1cc(=O)c(O)cc2c1C[C@H]1CC(C)(C)/C=C/C[C@@]3(C)Oc4cc(O)c(=O)cc(C)c4C[C@@H]3C[C@H](O)[C@]1(C)O2 [PYCNIDIONE],> 40 µM,34 mU/ml,1.6 µM,19,
